Assay results: US20100304422A1, “In-Vitro Model of the Transformation of Metaplasia to Neoplasia” (priority 2009, published 2010)

Tests used:
BAR-T cells [1] = assay: Real-time RT-PCR mRNA expression, normalized to β actin; format: cell-based, human; conditions: for molecular changes (mRNA), particularly transformation marker TC22: A alone (pH4) up to 34 weeks
Protocol: (§1) Cell line medium and cell culture—BAR-T cells were grown in special supplemented keratinocyte medium (KBM2) from Cambrex Bioscience (East Rutherford, N.J., USA), as per the protocol described by Jaiswal et al. Hydrochloric acid (A) was used to adjust the pH of the culture medium to experimental conditions. The bile acid, glycochenodeoxycholic acid, GCDA (Sigma, St. Louis, […]., USA), was diluted to optimum working concentration of 200 μM (B) with the culture medium adjusted to pH4 (A+B). 0.1×10^6 cells growing on six-well plates were incubated in A or A+B for 5 min in 24 h. For chronic exposure, cells were exposed for 5 min everyday to A only for up to 34 weeks and A+B for up to 84 weeks. No treatment was done on the day the cells were passed. The time was optimized from similar studies, showing that 5 min was sufficient for induction of signal transduction pathways regulating cellular machinery without cell damage. The cells were rinsed with phosphate buffered saline (PBS) before and after incubation with desired treatment medium. The control untreated cells were grown in parallel in the special medium as mentioned above at pH7.4. A portion of the cells were harvested every 4-6 weeks. Morphological Changes and Growth analysis—BAR-T cells that were exposed to A+B at various weeks were plated at 1×10^5 cells per well in 12 well plates and counted in triplicate using a Beckman Coulter Counter (Vi-CELL1.00). Cells were counted periodically and morphological changes were examined weekly. Foci assay: Cells were plated at 5×10^5 cells per 100 mm dishes (35). Untreated cells grown in parallel were also plated. Cells were grown for 4-5 weeks with regular medium changes beyond 100% confluency, fixed with 10% methanol, 10% acetic acid solution, and stained with 20% ethanol, 0.4% crystal violet for 5 min. Growth in soft agar: Each well of the six well plates was layered with base agar layer containing 0.8% agar in grown medium. […] Large (>1 mm) and small colonies (<1 mm) were visually identified, photographed and counted separately. […]

BAR-T cells [2] = assay: Morphological changes; format: cell-based, human
Protocol: as §1, with “The cells were rinsed with phosphate buffered saline (PBS) before and after incubation with desired treatment medium. The control untreated cells were grown in parallel in the special medium as mentioned above at pH7.4. A portion of the cells were harvested every 4-6 weeks.” left out, “weekly.” for “weekly. Foci assay: Cells were plated at 5×10^5 cells per 100 mm dishes (35). Untreated cells grown in parallel were also plated. Cells were grown for 4-5 weeks with regular medium changes beyond 100% confluency, fixed with 10% methanol, 10% acetic acid solution, and stained with 20% ethanol, 0.4% crystal violet for 5 min. Growth in soft agar: Each well of the six well plates was layered with base agar layer containing 0.8% agar in grown medium.”

| Structure (SMILES) | molecular changes (mRNA), particularly transformation marker TC22 (BAR-T cells [1]) | molecular changes (mRNA), particularly transformation marker TC22 (BAR-T cells [1]; listed as Acid (pH4)) | P53 expression (BAR-T cells [1]; A alone up to 34 weeks) | morphological changes (BAR-T cells [2]; chronic exposure to A alone, up to 34 weeks) | effect on BAR-T cells (BAR-T cells [2]; B alone up to 6 weeks, initial study) |
| --- | --- | --- | --- | --- | --- |
| Cl [A, Hydrochloric acid] | did not show the above molecular changes | remained mostly unchanged | minor increase | did not show any morphological changes |  |
| CC(CCC(=O)NCC(=O)O)C1CCC2C3C(O)CC4CC(O)CCC4(C)C3CCC12C (centres unmarked) [B, glycochenodeoxycholic acid, reference compound] |  |  |  |  | no appreciable effect |
